# Data taken from US10392398B2, “Inhibitors of Late SV40 Factor (LSF) as cancer chemotherapeutics” (TRUSTEES OF BOSTON UNIVERSITY, priority 2010, dated 2019).
# What was measured:
# [1] = Rat tolerability
# Procedure: The purpose of the study was to determine the tolerability of FQI-34 in rats as administered by IV at 3 dose levels-5, 15, and 50 mg/kg. FQI-34 was formulated in 20% DMSO/50% PEG-400/30% saline, and administered by IV at 5 mL/kg for compound or 10 mL/kg for vehicle alone. 6 rats per dose arm were used (3 male and 3 female), with single dose administration with monitoring over 14 days. Gross necropsy was performed at the end of the study.
# [2] = molecular target: T1, LSF (Homo sapiens, UniProt Q12800); experiment: Cellular Thermal Shift Assay (CETSA), LSF; type: binding; set-up: expressed in transfected cells
# T1 sequence (Q12800 1-502): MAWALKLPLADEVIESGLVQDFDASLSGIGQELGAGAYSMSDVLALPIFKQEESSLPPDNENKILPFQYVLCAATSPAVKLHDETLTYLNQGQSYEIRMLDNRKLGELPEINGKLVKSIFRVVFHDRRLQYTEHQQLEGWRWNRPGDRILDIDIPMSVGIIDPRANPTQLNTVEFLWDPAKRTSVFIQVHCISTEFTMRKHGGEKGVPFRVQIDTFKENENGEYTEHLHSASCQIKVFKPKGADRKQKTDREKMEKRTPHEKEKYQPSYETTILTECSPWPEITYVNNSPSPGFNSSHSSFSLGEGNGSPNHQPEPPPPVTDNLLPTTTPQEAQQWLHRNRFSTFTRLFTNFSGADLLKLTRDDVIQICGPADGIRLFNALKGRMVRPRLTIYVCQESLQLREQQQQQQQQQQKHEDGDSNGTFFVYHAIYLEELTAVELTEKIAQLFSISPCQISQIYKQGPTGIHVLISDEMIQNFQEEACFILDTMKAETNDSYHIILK
# Procedure: Drug-target engagement was assessed using CETSA as described by Molina et al. (Monitoring Drug-Target Engagement in Cells and Tissues Using Cellular Thermal Shift Assay. Science (2013) 341, 84-87). QGY-7703 cells were cultured at 37° C. in 5% CO2 in DMEM (Dulbecco's modification of Eagle's Medium; Corning) supplemented with 10% Fetal Bovine Serum (FBS; Invitrogen). Cells were seeded into 10 cm plates and allowed to reach 60-80% confluency. After trypsinization (0.05% Trypsin-EDTA, Invitrogen), cell pellet was washed twice with ice-cold 1×PBS (137 mM NaCl, 2.7 mM KCl, 10 mM Na2HPO4, 2 mM KH2PO4, pH 7.2). Cell pellet was lysed by addition of 200 μL freshly prepared ice-cold RIPA buffer (10 mM Tris-Cl pH 8.0, 1 mM EDTA, 0.5 mM EGTA, 1% Triton X-100, 0.1% sodium deoxycholate, 0.1% SDS, 140 mM NaCl) supplemented with 1 mM Pefabloc (Sigma-Aldrich), and flash frozen in liquid nitrogen and thawed for a total of three cycles. Cell lysate was centrifuged at 20,000×g for 20 minutes to clarify. Supernatant was either treated immediately or saved at −80° C. for future use. […]
# Immunoblots were quantified using Image J and graphed using GraphPad PRISM. Area-under-the-curve (AUC) for the quantified western blots were calculated with GraphPad PRISM and non-parametric t-test was calculated to determine statistical significance between the curves. […]
# [3] = rats, single IV dose, 50 mg/mL dose level as printed
compound,measurement,setting,value
"CCOc1cc(N(C)C)ccc1C1CC(=O)Nc2cc3c(cc21)OCO3 (centres unmarked) [FQI-34, 8-(4-(dimethylamino)-2-ethoxyphenyl)-7,8-dihydro-[1,3]dioxolo[4,5-g]quinolin-6(5H)-one]",gross necropsy,"[1]; end of study, 14 days after single IV dose of 5, 15 or 50 mg/kg",no abnormal findings
same,condition of all rats for duration of study,"[1]; excluding the male rat B, 5, 15 and 50 mg/kg IV, 14 days",within normal limits
same,observations in all other rats at this dose level,"[1]; rats, single IV dose, 15 mg/mL dose as printed, 14 days",remained normal throughout the study
same,mortality,"[1]; rats, single IV dose, 15 mg/mL dose as printed, believed to be due to stress and not compound related",Male Rat B died
same,observations upon dosing,[1]; [3],"pronation, increased respiratory rate, and decreased activity"
same,time until rats returned to normal,[1]; [3],≤ 30 min
same,binding to LSF by CETSA,"[2]; QGY-7703 lysate, 500 μM",directly binds
same,LSF CETSA,"[2]; Table 5, YES/NO",YES
